Measurements published in patent US10945989B2, “Perinatal treatment with a flavonoid agonist of the TrkB receptor for BDNF rescues neurogenesis and behavior in the Ts65Dn mouse model of DS” (ALMA MATER STUDIORUM—Universita' di Bologna, priority 2017, dated 2021).

Assays:
[1] = test system: NPCs from the SVZ of Ts65Dn mice; test: Neuron maturation: cells exhibiting neuritic processes, SVZ NPCs; format: cell-based, mouse; conditions: 96 h, vs standard medium
Experimental: Cells were isolated from the subventricular zone (SVZ) of the lateral ventricle and the subgranular zone (SGZ) of the hippocampal dentate gyrus (DG) of newborn (P1-P2) euploid and Ts65Dn mice. Briefly, brains were removed, the SVZ and SGZ regions were isolated and individually collected in ice-cold PIPES buffer pH 7.4. After centrifugation, tissue was digested for 10 min at 37° C. using Trypsin/EDTA 0.25% (Life Technologies) aided by gentle mechanical dissociation. Cell suspension from each individual mouse was plated onto 25 cm^2 cell-culture flask (Thermo Fisher Scientific) and cultured as floating neurospheres in medium containing basic fibroblast growth factor (bFGF, 10 ng/ml; Peprotech) and epidermal growth factor (EGF, 20 ng/ml; Peprotech) using an established protocol (Meneghini et al., 2014). […] Cell proliferation was quantified as relative luminescence units (RLU) values using Cell Titer-Glo viability assay reagent (Promega) on aVictor^3-V plate reader (PerkinElmer). […] In each experiment, five fields/well (corresponding to about 150-200 cells/well) were counted with a 60× objective by a Leica DMIRB inverted fluorescence microscope. Immunoreactive cells were counted and their percentage over total viable cells was calculated. […]

Ts65Dn and euploid mice = test: Morris Water Maze, probe test; format: in vivo, mouse
[2] = test system: dendritic spines of granule neurons; test: Golgi staining: dendritic spine density of granule cells; format: in vivo, mouse; conditions: 5.0 mg/kg P3-P15
Experimental: Euploid and Ts65Dn mice received a daily subcutaneous injection (at 9-10 am) of 7,8-DHF (5.0 mg/kg in vehicle: PBS with 1% DMSO) or vehicle from postnatal day 3 (P3) to postnatal day 15. This timing was chosen because it corresponds to that previously used to test the effects of fluoxetine and other pharmacotherapies in the neonate Ts65Dn mouse (Bianchi et al., 2010b; Giacomini et al., 2015; Stagni et al., 2016). Mice that received 7,8-DHF will be called “treated mice” (treated euploid mice: n=25; treated Ts65Dn mice: n=15). Mice that received the vehicle will be called “untreated mice” (untreated euploid mice: n=35; untreated Ts65Dn mice: n=21). […] The brains were excised and cut along the midline. […]
In Golgi-stained sections from the DG of P15 mice, spines of granule cells were counted using a 100× oil immersion objective lens (1.4 NA). […] For each neuron, 2-3 segments were analyzed in the outer and inner half of the molecular layer, respectively. For each animal, spines were counted in at least 8 neurons. The length of each sampled dendritic segment was determined by tracing its profile and the number of spines was counted manually. The linear spine density was calculated by dividing the total number of spines by the length of the dendritic segment. Spine density was expressed as number of spines per 100 μm dendrite.

ERK1/ERK2 = test: Western blot of hippocampal homogenates: ERK1/2 and p-ERK1/2; format: in vivo, mouse; conditions: for ERK2/ERK1 ratio, mean / p-ERK2/p-ERK1 ratio, mean: hippocampal region
Experimental: Euploid and Ts65Dn mice received a daily subcutaneous injection (at 9-10 am) of 7,8-DHF (5.0 mg/kg in vehicle: PBS with 1% DMSO) or vehicle from postnatal day 3 (P3) to postnatal day 15. This timing was chosen because it corresponds to that previously used to test the effects of fluoxetine and other pharmacotherapies in the neonate Ts65Dn mouse (Bianchi et al., 2010b; Giacomini et al., 2015; Stagni et al., 2016). Mice that received 7,8-DHF will be called “treated mice” (treated euploid mice: n=25; treated Ts65Dn mice: n=15). Mice that received the vehicle will be called “untreated mice” (untreated euploid mice: n=35; untreated Ts65Dn mice: n=21). […] The brains were excised and cut along the midline. The left hemisphere of a group of mice was fixed by immersion in PFA 4% and frozen, and the left hemisphere of another group of mice was used for Golgi staining. The right hemispheres of all mice was kept at −80° C. and used for western blotting.
In homogenates of the hippocampal formation of P15 mice, total proteins were obtained as previously described (Trazzi et al., 2011) and the levels of the following proteins were evaluated: BDNF, TrkB full length (TrkB-FL), phosphorylated TrkB (p-TrkB), the truncated form 1 of the TrkB receptor (TrkB-T1), phosphorylated ERK1 (p-ERK1), phosphorylated ERK2 (p-ERK2), ERK1, ERK2, synaptophysin (SYN), GAPDH and α-Tubulin using the antibodies reported in Table 1. Densitometric analysis of digitized images with ChemiDoc XRS+ was performed with Image Lab software (Bio-Rad Laboratories, Hercules, Calif., USA) and intensity for each band was normalized to the intensity of the corresponding GAPDH or α-Tubulin band.

[3] = Ts65Dn mice, became similar to untreated euploid mice

Q: Which “doses that increased the percentage of cells exhibiting neuritic processes” value [1] does the source give for `O=c1cc(-c2ccccc2)oc2c(O)c(O)ccc12` [7,8-DHF, 7,8-dihydroxyflavone] here?
A: Its value is “higher than 0.3 μM”.

Q: And the “percentage of time spent at the periphery (probe test)” value (Ts65Dn and euploid mice; Ts65Dn mice)?
A: Its value is “reduced in comparison with their untreated counterparts”.

Q: And the “frequency of entrances in the former quadrant” value (Ts65Dn and euploid mice; [3])?
A: Its value is “notable increase in the frequency”.

Q: What about the “latency to enter the former platform zone” value (Ts65Dn and euploid mice; [3]) of the same molecule?
A: The value was “notable reduction in their latency”.

Q: What about the “proximity to the former platform position” value (Ts65Dn and euploid mice; [3]) of the same molecule?
A: Its value is “swam closer to the former platform zone”.

Q: And the “percentage of time spent in quadrants” value (Ts65Dn and euploid mice; Ts65Dn mice, vs SE quadrant only marginally significant)?
A: Its value is “significantly more time in the former platform quadrant in comparison with the NE quadrant”.

Q: And the “frequency of entrances in the former quadrant” value (Ts65Dn and euploid mice; euploid mice)?
A: The value was “large increase in the frequency of entrances”.

Q: And the “percentage of time spent at the periphery (probe test)” value (Ts65Dn and euploid mice; euploid mice, treated vs. untreated)?
A: The value was “reduction in the percentage of time at the periphery”.

Q: What about the “percentage of time spent in quadrants” value (Ts65Dn and euploid mice; euploid mice, vs NE and SE quadrants) of the same molecule?
A: Its value is “significantly more time in the former platform quadrant”.

Q: What about the “spine density of granule neurons” value ([2]; P15 Ts65Dn mice) of the same molecule?
A: The value was “became similar to that of euploid mice”.

Q: And the “spine density of granule neurons” value ([2]; P15 euploid mice)?
A: Its value is “no effect on spine density”.

Q: And the p-ERK1 levels (ERK1/ERK2; P15 Ts65Dn mice, vs untreated Ts65Dn and untreated euploid mice)?
A: The p-ERK1 levels was “increase in p-ERK1 levels”.

Q: What about the ERK1 levels (ERK1/ERK2; P15 Ts65Dn mice, vs untreated Ts65Dn mice) of the same molecule?
A: The ERK1 levels was “increase in ERK1 levels”.

Q: What about the ERK2 levels (ERK1/ERK2; P15 Ts65Dn mice, vs untreated counterparts and untreated euploid mice) of the same molecule?
A: Its ERK2 levels is “increase in ERK2 levels”.

Q: What about the p-ERK2 levels (ERK1/ERK2; P15 Ts65Dn mice, vs untreated euploid mice) of the same molecule?
A: The p-ERK2 levels was “increase in p-ERK2 levels”.

Q: What about the ERK2 levels (ERK1/ERK2; P15 euploid mice, vs untreated counterparts) of the same molecule?
A: The ERK2 levels was “increase in ERK2 levels”.

Q: What about the “stoichiometry of ERK1/2 and p-ERK1/2” value (ERK1/ERK2; Ts65Dn mice) of the same molecule?
A: Its value is “did not affect their stoichiometry”.

Q: And the “ERK2/ERK1 ratio, mean” value (ERK1/ERK2; Ts65Dn mice, 7,8-DHF P3-P15)?
A: The value was 3.93.

Q: And the “p-ERK2/p-ERK1 ratio, mean” value (ERK1/ERK2; Ts65Dn mice, 7,8-DHF P3-P15)?
A: Its value is 2.01.

Q: And the “ERK2/ERK1 ratio, mean” value (ERK1/ERK2; euploid mice, 7,8-DHF P3-P15)?
A: Its value is 4.18.

Q: And the “p-ERK2/p-ERK1 ratio, mean” value (ERK1/ERK2; euploid mice, 7,8-DHF P3-P15)?
A: Its value is 2.32.
